Patent EP1002054B1, “PROCESS FOR THE PRODUCTION OF VIRUS IN CELL CULTURES” (priority 1998, dated 1999)
*1 amine or outer side, *2 acyl side, *3 side chain or, on linkers, in order; H or OH if unused. Where a SMILES comes first, the peptide text is derived from it. Bridges are numbered along the chain shown (N, C = ends). Roman numbers before positions name the chains, in order. [ ]: non-standard residue; d: D form. Actinocin(9to1) = Cc1c2oc3c(C)ccc(C(=O)[*:1])c3nc-2c(C(=O)[*:2])c(N)c1=O; NMeV = CN[C@H](C(=O)O)C(C)C; Sar = CNCC(=O)O

Assays:
[1] = tested on: interferon response
[2] = tested on: interferon response; conditions: pretreatment of the cells; cited from earlier work

Question: For `Cc1c2oc3c(C)ccc(C(=O)N[C@@H]4C(=O)N[C@H](C(C)C)C(=O)N5CCC[C@H]5C(=O)N(C)CC(=O)N(C)[C@@H](C(C)C)C(=O)O[C@@H]4C)c3nc-2c(C(=O)N[C@@H]2C(=O)N[C@H](C(C)C)C(=O)N3CCC[C@H]3C(=O)N(C)CC(=O)N(C)[C@@H](C(C)C)C(=O)O[C@@H]2C)c(N)c1=O` [actinomycin D] (I: T[dV]P[Sar][NMeV] / II: T[dV]P[Sar][NMeV]; ester I:1-I:C, II:1-II:C; linker I:N-II:N via Actinocin(9to1)), which “effect on virus yield relative to control cultures” value [1] is on record?
Answer: substantial increase in virus yield

Question: And the “toxicity to the cells” value [1]?
Answer: relatively toxic to the cells

Question: And the “effect on interferon response” value [2]?
Answer: blocks the interferon response
